One data set relates to MS-2 fibrosarcoma. Nature of the data set: Phototherapy of tumor-bearing mice, tumor response. In kind it is in vivo, Female Balb/c mice. The method, then:
By the seventh day after transplantation, the tumors had reached a diameter of approximately 0.8 cm.
(§1) Each mouse was intravenously injected with 2 mg./kg. of 2,7,12,17-tetra-n-propylporphycene (TPP) incorporated into small umilamellar liposomes of dipalmitoyl-phosphatidylcholine (DPPC), prepared according to the procedures of Example 2, on the seventh day after transplantation. At this time the diameter of the tumor was approximately 0.8 cm.
(§2) 24 hours after TPP injection, the tumor area was exposed to 600-690 nm. light isolated by optical filtration from the emission of a 250 W quartz-halogen lamp through a set of optical filters (Teclas, Lugano, Switzerland). The light beam was focused into a bundle of optical fibers having an external diameter of 6 mm. The tip of the fiber was kept at a distance of 1 cm from the tissue surface. The lamp was operated at a dose-rate of 230 mW/cm^2, and the total delivered light dose was 150 J/cm^2 or 300 J/cm^2.

The test system of another data set is normal skin. The data set can be described thus: Phototherapy, photoinduced damage of irradiated normal skin. The data set is classed as in vivo, Female Balb/c mice. As to the method: as §1, §2
An equal area of normal skin on the left hind leg was irradiated in each mouse immediately after tumor irradiation using an identical protocol.

Data set [1] can be described thus: Tissue analysis: recovery of TPP from serum and tissues after injection. The data set is classed as in vivo, mice. The conditions noted are these: 2 mg/kg; for concentration at 3 h / concentration at 24 h: mouse, iv, average of 6 mice, maximum deviation ±20%; for concentration at 3 h: 3 hours after injection; for concentration at 24 h: 24 hours after injection. The method, then: At each of 3 hours and 24 hours after injection, six mice were sacrificed by exposure to ether vapor, and the serum or specific tissue were removed. About 2 mL of blood was taken intracardially and centrifuged for 15 minutes at 3,000 rpm to remove the erythrocytes. The serum was collected, diluted with 2% aqueous SDS and assayed for TPP content spectrophotofluorimetrically (λex =560 nm). The fluorescence emitted in the 580-740 nm interval was converted into TPP concentration by interpolation with a calibration plot.
The tumor and predetermined normal tissues were removed, washed twice with PBS, and a weighed amount of tissue (approximately 200 mg) was finely minced and homogenized in a Potter vessel with 4 mL chloroform. The dispersion was centrifuged at 3,000 rpm for 15 minutes; the supernatant was collected and its TPP content was estimated spectrophotofluorimetrically as described above. Rehomogenization of the sediment under the same conditions gave less than 3% of the TPP extracted in the original step. […]
The recovery of TPP from serum and various tissues of the tumor-bearing mice at 3 hours and 24 hours after injection are shown in Table 1. The samples from each animal were analyzed separately, and are table values represent the average recovery data from the single tissues of 6 mice. The maximum deviation from the reported values was ±20%.

The nature of data set [2]: Distribution and clearance in a mouse model (statement in the description). The data set is classed as in vivo.
The conditions of data set [3]: cited from earlier work.
A further data set in a line: Solubility. The data set is classed as physicochemical.
[4] abbreviates: 2 mg/kg i.v., 300 J/cm^2 at 24 hours after TPP injection.
[5] abbreviates: brain, read-out: Recovery, brain.
The mark [6] stands for this setting: liver, read-out: Recovery, liver.
The mark [7] stands for this setting: muscle, read-out: Recovery, muscle.
The mark [8] stands for this setting: tumor, read-out: Recovery, tumor.

Results on 2 molecules are retold here after patent publication US4913907A, “Porphycene anti-cancer agents and treatment methods” (Cytopharm, Inc., priority 1988, dated 1990).

Like-named read-outs stand apart in the source and are kept apart here.

As to `CCCC1=Cc2nc1ccc1[nH]c(cc1CCC)c1nc(ccc3[nH]c2cc3CCC)C(CCC)=C1` [TPP, 2,7,12,17-tetra-n-propylporphycene], the “onset of tumor necrosis” value in the data set on MS-2 fibrosarcoma (2 mg/kg i.v. in DPPC liposomes, 300 J/cm^2 of 600-690 nm light at 24 hours after TPP injection) is given as “massive tumor necrosis”. Besides, in the data set on MS-2 fibrosarcoma (2 mg/kg i.v., 150 J/cm^2 of red light at 24 hours after TPP injection), the tumor necrosis result is given as “equally deep necrosis, however less extensive”. For the same molecule, in the data set on MS-2 fibrosarcoma (setting [4]), the “eschar formation complete within” value was no more than 3 days. Moreover, in the data set on MS-2 fibrosarcoma (setting [4]), the “time until depth of necrosis reached bone” value is recorded as “about 7 days”. For the same molecule, the “erythema, disappearance” value in the data set with normal skin (irradiated TPP-treated mice) is given as “disappeared within about one week”. For the same molecule, the “photoinduced damage at the level of the normal skin” value in the data set on normal skin (irradiated TPP-treated mice, most animals, mainly erythema) is on record as “developed some photoinduced damage at the level of the normal skin”. In the data set on normal skin (irradiated TPP-treated mice, generally), the “erythema, diameter” value is “less than 0.3 cm”. The “photosensitivity at the irradiated normal skin” value in the data set with normal skin (left hind leg, identical irradiation protocol) is given as “Some photosensitivity was also observed”. Further, the concentration at 3 h was less than 10 ng/g in data set [1] (setting [5]); 1250 ng/g in data set [1] (kidneys, read-out: Recovery, kidneys); 13000 ng/g in data set [1] (setting [6]); 140 ng/g in data set [1] (setting [7]); 290 ng/g in data set [1] (skin, read-out: Recovery, skin); 690 ng/g in data set [1] (setting [8]). The concentration at 24 h was less than 10 ng/g in data set [1] (setting [5]); 11100 ng/g in data set [1] (setting [6]); 90 ng/g in data set [1] (setting [7]); 25600 ng/mL in data set [1] (serum, read-out: Recovery, serum); 440 ng/g in data set [1] (skin, read-out: Recovery, skin); 2940 ng/g in data set [1] (spleen, read-out: Recovery, spleen). Further, the concentration at 24 h in data set [1] (setting [8]) came out at 1500 ng/g. For the same molecule, the “recovery from the tumor” value in data set [1] (tumor tissue, time not stated) is given as “approximately 1 μg/g”. Besides, the “tumor uptake as compared to skin or muscle tissue” value in data set [2] (24 hours post-injection) is “concentrate preferentially in tumor tissue as compared to skin or muscle tissue”. Besides, in data set [2] (mouse model), the drug clearance route result is given as “via the liver rather than by the kidneys”. The “uptake by the brain” value in data set [2] (mouse model) is “little or no porphycene uptake by the brain”. In data set [3], the “absorption above 620 nm” value is listed as “high absorption above 620 nm”.

On to `C1=Cc2nc1ccc1ccc([nH]1)c1nc(ccc3ccc2[nH]3)C=C1` [porphycene], for which, in the data set “Solubility”, the “solubility in water and pharmaceutically suitable solvents” value is “not soluble in water and pharmaceutically suitable solvents”. The “absorption above 620 nm” value in data set [3] is recorded as “high absorption above 620 nm”.
